Measured values from patent US12473250B2, “Molecular design of new antibiotics and antibiotic adjuvants against MCR strains” (priority 2019, dated 2025).

Legend:
[1] = system: PAE strains (CRE strains, colistin sensitive); assay: MIC of polymyxin B or colistin alone (Table 4); format: cell-based, P. aeruginosa; design: unit: μg/mL
Experimental: MIC experiments of the antimicrobial agents were determined by a modified broth microdilution method in accordance with the Clinical and Laboratory Standards Institute (CLSI) guidelines using 96 well culture plates. In brief, serial dilutions of all plates were prepared at different concentrations (μg). The inoculum suspension was prepared by adding isolated colonies from a 18-20 hours on TSA plate into phosphate buffer (0.31 mM, pH 7.2) or in water for injection (BBraun) and adjusting the suspension to a turbidity equivalent to 0.5 McFarland Standard. Each well contained a final bacterial concentration of approximately 5×10^5 colony forming units (CFU)/mL. The plate was covered and incubated at 35° C. for 24 hours. […] For the microdilution plates, turbidity in wells can be measured at OD600 using TECAN infinite M200Pro. MIC was determined as […] concentration that gives a 99 percent inhibition.

[2] = system: colistin resistant MCR (−) E. Cloacae strain 7023456439; assay: MIC, broth microdilution, compound alone; format: cell-based; conditions: strain 7023456439 E. Cloacae
Summary of the method: (§1)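 Wells held ~5×10^5 CFU/mL of bacteria prepared to 0.5 McFarland from overnight TSA colonies and exposed to serially diluted agents, following modified CLSI microdilution. After 24 h at 35 °C, growth judged by turbidity (OD600 possible); 99% inhibition sets the MIC.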

[3] = system: colistin resistant MCR (−) E. Coli strains; assay: MIC, broth microdilution, compound alone; format: cell-based
Summary of the method: as §1

Colistin
MIC (antibiotic alone) ([1]; strain PAE 4877): 1.56 | MIC (antibiotic alone) ([1]; strain PAE 5790): 1.56 | MIC (antibiotic alone) ([1]; strain PAE 14476): 1.56 | MIC [2]: 100 µg/mL | MIC ([3]; strain 6083672926, MCR (−)): 12.5 µg/mL | MIC ([3]; strain 7023446108, MCR (−)): 6.25 µg/mL | MIC ([3]; strain 7033607097, MCR (−)): 6.25 µg/mL
